The values below come from publication PMC5764437, “Discovery of novel, orally bioavailable, antileishmanial compounds using phenotypic screening” (PLoS Neglected Tropical Diseases, 2017).

Data set [1] relates to L. mexicana intracellular amastigotes. As to the kind of experiment: Growth inhibition of intracellular amastigotes in J774A.1 macrophages (Renilla luciferase luminescence). Format: cell-based. Conditions: Leishmania mexicana, J774.A1; intracellular amastigotes in J774A.1 macrophages; mean ± standard deviation, n = 2; read-out: L. mexicana EC50. The protocol: L. mexicana (MNYZ/BZ/62/M379) or L. donovani (LdBob strain) parasites expressing the Renilla luciferase gene from a rRNA gene locus were used to infect J774A.1 macrophages. Growth of intracellular amastigotes was measured using a luminescence assay, as detailed previously. The growth inhibitor activities of compounds were tested against bloodstream form Lister 427 T. brucei in 96-well plates containing 1 X 10^5 parasites per well in 0.2 ml HMI-11 medium (Gibco/Thermo Fisher). Compounds (2 μl volumes in DMSO) were added to the parasites using serial 3-fold dilutions to cover a range of concentrations from about 10 μM to 1 nM. After 48 h incubation at 37°C under a humidified 5% CO2 atmosphere, 10 μl of 10% Triton X-100 and 100 X stock SYBR Green I (Sigma-Aldrich) in PBS was added and florescence measured (excitation 497 nm; emission 520 nm) after 1 h incubation in the dark using a Spectra Max Gemini XPS fluorimeter (Molecular Devices). Data were log transformed and EC50 values were determined using GraphPad Prism 6 (GraphPad Software). In the absence of growth inhibiting compounds, the parasites grew from an initial density of 5 X 10^5 cells/mL to ~3 X 10^6 cells/mL.
[…]. These were chosen as candidates for further study. From these 230 compounds, we were able to repurchase 113 from commercial vendors. These compounds were characterized for purity by ultra-performance liquid chromatography using ultraviolet spectroscopy and evaporative light scattering detection and identity by mass spectrometry. All validated compounds were profiled for activity against intracellular amastigotes, the disease-causing stage of the life cycle. Intracellular amastigote activity was determined using a strain of L. mexicana in which the Renilla luciferase gene was integrated into the rRNA locus, allowing robust expression for measuring amastigote growth within cultured macrophages. All 113 compounds were applied at 1 μM concentration for 96 h to J774A.1 macrophages infected with L. mexicana luciferase-expressing parasites. […].
Next, we generated dose-response curves for these 55 compounds against intracellular amastigotes and independently against J774A.1 macrophages to establish the relative potency of each compound against the pathogen and its host cell. […]. The nine remaining compounds, each representing a unique chemical scaffold (compounds 1–9, Fig 3), were designated top hits (Fig 1).

Data set [2] is described as follows: Liver microsomal stability, rat. Conditions: liver microsomes, pH 7.4. The protocol:
(§1) One part of 10 mM DMSO compound stock was mixed with 4 parts of acetonitrile to make 2 mM diluted compound stock in DMSO and acetonitrile. 29.1 µL diluted compound stock was added to 2.3 mL liver microsomal solution and vortexed to make microsomal solution with compound. […] For the 0 h time point, 450 µL pre-cooled (4 °C) internal standard (10 µM warfarin in methanol) was added to the first three columns before the reaction was initiated. 1.25 ml of microsome assay solution A (Fisher Scientific, #NC9255727) was combined with 0.25 ml of solution B (Fisher Scientific, #NC9016235) in 3.5 ml of potassium phosphate buffer (0.1 M, pH 7.4). 45 µL of this A+B solution was added to each well of the 96-well storage plate (reaction plate). Liquid in the first 3 columns was moved to another storage plate (quenched plate). The reaction plate was then sealed, incubated at 37 °C, and shaken at a speed of 60 rpm. Time points (0.5 h, 1 h, 2 h) were taken. At each time point, 450 µL pre-cooled internal standard was added to 3 rows in the reaction plate, and the liquid was then transferred to the quenched plate. […] 200 µL supernatant was transferred to a 96-well plate and analyzed by ultra-performance liquid chromatography-mass spectrometry (UPLC-MS) (Waters Inc.). The compounds and internal standard were detected by selected ion recording (SIR).
(Microsomes from liver hold many membrane-bound enzymes, among them those of drug oxidation.)

Data set [3] is described as follows: Liver microsomal stability, human. Particulars: both, liver microsomes, pH 7.4. The method, then: as §1
The nature of data set [4]: Single oral dose pharmacokinetic study in mice. Type of data set: in vivo, mouse. Conditions: single oral gavage; for half-life: read-out: t½ (converted). The method, then: Female BALB/c mice of 17-21 grams were purchased from Charles River Laboratories (Wilmington, MA). Food and water were provided ad libitum. […] All animal received 100 ± 20 µL of compound solution in formulation (10/10/40/40: […] Animals were euthanized via cardiac puncture at 48 h post injection. Blood samples were treated with 10 µL of EDTA sodium solution to prevent coagulation. […] The supernatant (40 µL) was collected and mixed with 2 parts of Milli-Q water and centrifuged again at 4000 rpm for 20 min at 4 °C. Plasma concentration was determined with a partially validated LC/MS-MS assay with multiple reaction monitoring detection (AB Sciex, Framingham, MA). The summary of the LC/MS/MS method is provided below. The assay lower limit of quantification (LLOQ) was 4.57 nM in plasma. […] The Area Under the Concentration-Time Curve (AUC) was calculated with the linear trapezoidal, linear interpolation rule using mean concentrations and nominal times. The standard error of the AUC to the last time point (AUClast) was generated using the sparse sampling option. The terminal elimination rate (Lambda_z) and half-life (HL_Lambda_z) was determined using the default “Best Fit” method. The predicted AUC from the last time point to infinity (AUCINF_pred) was calculated as AUClast plus Clast(pred)/Lambda_z. Clearance (CL or CL/F) was calculated as Dose/AUCINF_pred. If ≥2/3rds of the observed concentrations were below LLOQ, the mean concentration was treated missing. The calibration curve was obtained as follows. The calibration was done using the same biological matrices to ensure similar recovery. […] All concentrations in the calibration range must be no more than 20% deviation. If there were any points with more than 20% deviation on the high or low end, the calibration range would be truncated. If an outlier occurred in the middle of the curve, the whole curve would be re-done. The signal: noise of the compound peak at the H/LLOQ must be greater than 5. […] The samples were tested on the same or the second day.

Setting [5] is: female, BALB/c, mouse, plasma, po, 50 mg/kg.
Where [6] appears, read: female, BALB/c, mouse, plasma, po, 25 mg/kg.

Like-named read-outs stand apart in the source and are kept apart here.

A word on the EC50: it is the concentration needed to bring the measured effect to its halfway point. Broadly, the Cmax is the highest concentration seen after dosing. In general, Tmax refers to the time from dosing to the highest level. The term AUC denotes the area under the concentration-time curve, a measure of exposure. Read a low AUC as less exposure. Regarding `Cc1ccc(-c2nc3ccccc3s2)cc1NC(=O)c1cc([N+](=O)[O-])c(N2CCN(C)CC2)cc1Cl` [Compound 5], in data set [1], the EC50 came out at 22 nM. The molecule also displayed a half-life at 20 μM in data set [2] of more than 4 h. The molecule further registered a half-life at 20 μM in data set [3] of more than 4 h. In data set [4] (setting [5]), the peak level (Cmax) was 6.49 µM and the Tmax amounted to 4 h. In data set [4] (female, BALB/c, mouse, plasma, po, 50 mg/kg, 50 mg/kg, plasma), the half-life was 7.1 h. Further, the AUC in data set [4] (female, BALB/c, mouse, 50 mg/kg, plasma) was found to be 83.2 µM·h. In data set [4] (50 mg/kg), this molecule registered a CL of 19.2 mL/min/kg and a Vd of 11.8 L/kg. The molecule also returned a Cmax in data set [4] (50 mg/kg, plasma) of 6.5 µM.

In general, t½ refers to the time needed for the level to fall by half in the phase considered. A lower t½ goes with rapid decline. As to `COc1ccc(-c2c(C(F)(F)F)oc3c(CN4CCN(C)CC4)c(O)ccc3c2=O)cc1OC` [Compound 4], in data set [1], the EC50 was determined as 80 nM. The molecule further returned a half-life at 20 μM in data set [2] of more than 4 h. In data set [3], this molecule yielded a half-life at 20 μM of more than 4 h. For the same molecule, in data set [4] (setting [6]), the Cmax was 3.2 µM and the time of peak concentration (Tmax) was not above 1 h. Also, the half-life in data set [4] (female, BALB/c, mouse, plasma, po, 25 mg/kg, 25 mg/kg, plasma) is 3 h. Further, the area under the curve (AUC) in data set [4] (female, BALB/c, mouse, 25 mg/kg, plasma) is 16.7 µM·h. In data set [4] (25 mg/kg), this molecule yielded a CL of 52.2 mL/min/kg and a Vd of 14.2 L/kg. Also, the t½ in data set [4] (25 mg/kg, plasma) is recorded as 3.2 h.
